Earlier results on one molecule are cited in US20150141518A1, “WATER-MISCIBLE STABLE SOLUTION COMPOSITION FOR PHARMACEUTICALLY ACTIVE INGREDIENTS THAT ARE POORLY SOLUBLE IN WATER AND SUSCEPTIBLE TO CHEMICAL DEGRADATION” (Emphascience, Inc., priority 2013, published 2015).

SMILES strings stand for the structures.

For data set [1] the following is noted: accelerated at extremes of pH and higher temperatures.
For data set [2] the following is noted: room temperature.

As for `CC(=O)Nc1ccc(O)cc1` [paracetamol], in data set [1], the “overall rate of chemical degradation of paracetamol in solution” value was “first order kinetics”. Moreover, in data set [2], the “solubility of paracetamol in water” value is recorded as “ca. 13 mg/mL”.
